Target: T1, DivIVACd (Clostridioides difficile, UniProt Q182V3)
T1 construct: gene CD630_26190; full length, untagged (pET-26b) or His-SUMO tag cut by Ulp1 without extra residues; E. coli BL21(DE3)pLysS; forms large polymers
T1 sequence (Q182V3 1-175): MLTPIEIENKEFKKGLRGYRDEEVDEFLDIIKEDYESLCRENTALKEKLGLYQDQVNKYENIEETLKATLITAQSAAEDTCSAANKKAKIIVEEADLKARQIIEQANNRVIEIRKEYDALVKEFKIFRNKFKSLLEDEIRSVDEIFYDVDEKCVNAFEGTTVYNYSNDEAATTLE
Experiment: QCM-D, protein titrated over supported lipid bilayer, Hill fit
Format: binding
Conditions: 5% CL in mixed bilayer (65% DOPC, 30% DOPG, 5% TOCL); protein concentration scale; Hill coefficient 1.0; pH 7.4, 250 mM KCl, 5 mM MgCl2, 23 °C

SMILES: CCCCCCCC/C=C\CCCCCCCC(=O)OC[C@H](COP(=O)(O)OCC(O)COP(=O)(O)OC[C@@H](COC(=O)CCCCCCC/C=C\CCCCCCCC)OC(=O)CCCCCCC/C=C\CCCCCCCC)OC(=O)CCCCCCC/C=C\CCCCCCCC (stereo partly shown) [TOCL, 1,3-bis[1,2-dioleoyl-sn-glycero-3-phospho]-glycerol]
- Kd: 1300 nM

Source: article PMC8348161, “Cardiolipin-Containing Lipid Membranes Attract the Bacterial Cell Division Protein DivIVA” (International Journal of Molecular Sciences, 2021)
